Patent US20130236527A1, “LICORICE LOLLIPOP THAT INHIBITS DENTAL CARIES FORMATION” (INTELLIHERB, LLC, priority 2008, published 2013)

Legend:
bacterial adherence = test: inhibition of bacterial adherence / dental caries formation
S. mutans = test: anti-S. mutans bioactivity examination of extract batches; format: cell-based, Streptococcus mutans
Description: In addition to chemical analysis, all batches, or statistically relevant samples of continuous production processes (e.g., 1/3600 candies; or 1/5000 candies; or 1/10,000 candies or the like) or statistically relevant samples of candy production batches (e.g., 1/10 batches; or 1/20 batches; or 1/50 batches), are examined for bioactivity. While the pure compound of glycyrrhizol A has anti-S. mutans activity at 1 microgram per ml, the mixed compound usually has anti-S. mutans activity at 10-30 microgram per ml.

CC1(C)[C@@H](O[C@H]2O[C@H](C(=O)O)[C@@H](O)[C@H](O)[C@H]2O[C@@H]2O[C@H](C(=O)O)[C@@H](O)[C@H](O)[C@H]2O)CC[C@]2(C)[C@H]3C(=O)C=C4[C@@H]5C[C@@](C)(C(=O)O)CC[C@]5(C)CC[C@@]4(C)[C@]3(C)CC[C@@H]12 [glycyrrhizin]
inhibition of dental caries formation by inhibiting bacterial adherence (bacterial adherence): can inhibit formation of dental caries by inhibiting bacterial adherence

COc1c(CC=C(C)C)c(O)cc2c1-c1oc3cc(O)c(CC=C(C)C)cc3c1CO2 [Glycyrrhizol A]
anti-S. mutans activity at (concentration) (S. mutans): 1 microgram per ml
